Measured values taken from patent US12527886B2, “Radiopharmaceuticals and composition for thrombus imaging” (THE ASAN FOUNDATION, priority 2020, dated 2026).

Legend:
[1] = Stability of Tc-99m labeled compound by radioTLC; assay type: physicochemical; details: for Eluent A / Eluent B: in % (unit assumed)
Description: (§1) After 2.0 mg of GP-104 was dissolved in 1.8 mL of water for injection and 0.2 mL of ethanol, the resulting solution was allowed to stand with a pH of about 5 at room temperature for 10 minutes when 20 μL of SnCl2 (15 mg/mL) and 2 mL of Tc-99m were added thereto, and the reaction was terminated by adjusting the pH to 7 using a NaOH solution. Stability up to 4 hours was confirmed by radioTLC under conditions of pH 5 and pH 7, respectively, and the results are summarized in the following Table 1. (TLC analysis conditions: iTLC was used, Eluent A: methyl ethyl ketone 100%, Eluent B: pyridine:acetic acid:purified water=3:5:15, and purity calculation: Eluent A−Eluent B)
as §1, with “ethanol, pH was adjusted to about 5 and” for “ethanol,”, “stand” for “stand with a pH of about 5”, “(15 mg/mL), 20 μL of cysteine (10” for “(15”, “Table 2.” for “Table 1.”
(§2) After 2.0 mg of GP-105 was dissolved in 1.8 mL of water for injection and 0.2 mL of ethanol, the pH was adjusted to about 5 and the resulting solution was allowed to stand at room temperature for 10 minutes when 20 μL of SnCl2 (15 mg/mL) and 2 mL of Tc-99m were added thereto, and the reaction was terminated by adjusting the pH to 7 using a NaOH solution. Stability until 4 hours under conditions of pH 5 and pH 7 was each confirmed by radioTLC. (TLC analysis conditions: iTLC was used, Eluent A: methyl ethyl ketone 100%, Eluent B: pyridine:acetic acid:purified water=3:5:15, and purity calculation: Eluent A−Eluent B)
as §2, with “ethanol,” for “ethanol, the”, “(15 mg/mL), 20 μL of cysteine (10” for “(15”

[2] = Stability of Tc-99m labeled compound, labeling purity by HPLC; assay type: physicochemical; details: Ex 3-3
[3] = Ex 3-1, no cysteine, pH 5, 0 hour
[4] = Ex 3-1, no cysteine, pH 5, 0.5 hours
[5] = Ex 3-1, no cysteine, pH 5, 1.0 hour
[6] = Ex 3-1, no cysteine, pH 5, 1.5 hours
[7] = Ex 3-1, no cysteine, pH 5, 2.0 hours
[8] = Ex 3-1, no cysteine, pH 5, 3.0 hours
[9] = Ex 3-1, no cysteine, pH 5, 4.0 hours
[10] = Ex 3-1, no cysteine, pH 7, 0 hour
[11] = Ex 3-1, no cysteine, pH 7, 0.5 hours
[12] = Ex 3-1, no cysteine, pH 7, 1.0 hour
[13] = Ex 3-1, no cysteine, pH 7, 1.5 hours
[14] = Ex 3-1, no cysteine, pH 7, 2.0 hours
[15] = Ex 3-1, no cysteine, pH 7, 3.0 hours
[16] = Ex 3-1, no cysteine, pH 7, 4.0 hours
[17] = Ex 3-2, cysteine, pH 5, 0.5 hours
[18] = Ex 3-2, cysteine, pH 5, 1.0 hour
[19] = Ex 3-2, cysteine, pH 5, 1.5 hours
[20] = Ex 3-2, cysteine, pH 5, 2.0 hours
[21] = Ex 3-2, cysteine, pH 5, 3.0 hours
[22] = Ex 3-2, cysteine, pH 5, 4.0 hours
[23] = Ex 3-2, cysteine, pH 7, 0.5 hours
[24] = Ex 3-2, cysteine, pH 7, 1.0 hour
[25] = Ex 3-2, cysteine, pH 7, 1.5 hours
[26] = Ex 3-2, cysteine, pH 7, 2.0 hours
[27] = Ex 3-2, cysteine, pH 7, 3.0 hours
[28] = Ex 3-2, cysteine, pH 7, 4.0 hours

- Purity [1, 3]: 90.28%
- Eluent A [1, 3]: 95.7
- Eluent B [1, 3]: 5.42
- Purity [1, 4]: 91.36%
- Eluent A [1, 4]: 95.42
- Eluent B [1, 4]: 4.06
- Purity [1, 5]: 82.28%
- Eluent A [1, 5]: 98.43
- Eluent B [1, 5]: 16.15
- Purity [1, 6]: 72.79%
- Eluent A [1, 6]: 85.7
- Eluent B [1, 6]: 12.91
- Purity [1, 7]: 70.11%
- Eluent A [1, 7]: 91.79
- Eluent B [1, 7]: 21.68
- Purity [1, 8]: 67.71%
- Eluent A [1, 8]: 91.64
- Eluent B [1, 8]: 23.93
- Purity [1, 9]: 55.93%
- Eluent A [1, 9]: 80.48
- Eluent B [1, 9]: 24.55
- Purity [1, 10]: 90.59%
- Eluent A [1, 10]: 98.26
- Eluent B [1, 10]: 7.67
- Purity [1, 11]: 78.04%
- Eluent A [1, 11]: 92.82
- Eluent B [1, 11]: 14.78
- Purity [1, 12]: 78.31%
- Eluent A [1, 12]: 94.51
- Eluent B [1, 12]: 16.2
- Purity [1, 13]: 82.7%
- Eluent A [1, 13]: 96.11
- Eluent B [1, 13]: 13.41
- Purity [1, 14]: 76.61%
- Eluent A [1, 14]: 96.22
- Eluent B [1, 14]: 19.61
- Purity [1, 15]: 77.93%
- Eluent A [1, 15]: 87.58
- Eluent B [1, 15]: 9.65
- Purity [1, 16]: 54.14%
- Eluent A [1, 16]: 73.22
- Eluent B [1, 16]: 19.08
- Purity ([1]; Ex 3-2, cysteine, pH 5, 0 hour): 85.97%
- Eluent A ([1]; Ex 3-2, cysteine, pH 5, 0 hour): 89.51
- Eluent B ([1]; Ex 3-2, cysteine, pH 5, 0 hour): 3.54
- Purity [1, 17]: 87.89%
- Eluent A [1, 17]: 93.51
- Eluent B [1, 17]: 5.62
- Purity [1, 18]: 90.39%
- Eluent A [1, 18]: 93.61
- Eluent B [1, 18]: 3.22
- Purity [1, 19]: 93.47%
- Eluent A [1, 19]: 95.55
- Eluent B [1, 19]: 2.08
- Purity [1, 20]: 82.97%
- Eluent A [1, 20]: 91.17
- Eluent B [1, 20]: 8.2
- Purity [1, 21]: 86.06%
- Eluent A [1, 21]: 89.61
- Eluent B [1, 21]: 3.55
- Purity [1, 22]: 87.56%
- Eluent A [1, 22]: 91.99
- Eluent B [1, 22]: 4.43
- Purity ([1]; Ex 3-2, cysteine, pH 7, 0 hour): 96.94%
- Eluent A ([1]; Ex 3-2, cysteine, pH 7, 0 hour): 100
- Eluent B ([1]; Ex 3-2, cysteine, pH 7, 0 hour): 3.06
- Purity [1, 23]: 93.36%
- Eluent A [1, 23]: 98.3
- Eluent B [1, 23]: 4.94
- Purity [1, 24]: 96.35%
- Eluent A [1, 24]: 98.27
- Eluent B [1, 24]: 1.92
- Purity [1, 25]: 97.69%
- Eluent A [1, 25]: 100
- Eluent B [1, 25]: 2.31
- Purity [1, 26]: 97.12%
- Eluent A [1, 26]: 100
- Eluent B [1, 26]: 2.88
- Purity [1, 27]: 94.14%
- Eluent A [1, 27]: 100
- Eluent B [1, 27]: 5.86
- Purity [1, 28]: 95.76%
- Eluent A [1, 28]: 100
- Eluent B [1, 28]: 4.24
- Purity ([1]; addition of cysteine, pH of 7, even after 4 hours (text to Table 2)): ≥ 90%
- purity (HPLC) ([2]; addition of cysteine after reaction, pH 3, 3 hours): 42.46%
- purity (HPLC) ([2]; addition of cysteine before reaction, pH 3, 0 hour): 95.6%
- purity (HPLC) ([2]; addition of cysteine before reaction, pH 7, 3 hours): 98.53%
SMILES: O=C(O)C[C@H](NC(=O)[C@@H]1CCCN(C(=O)CCC2CCNCC2)C1)c1cncc(OCCNC(=O)CN2CCN3CCN(CC(=O)O)CC(=O)[O][99Tc+]([O]C(=O)C3)[O]C(=O)C2)c1 [[Tc-99m]GP-104]
